≈ marks a conversion by molar mass, not a printed value. Where two headings read alike, the source gives them in different places.
Key:
RVFV strain MP12 = test: microbe, parasite or virus in culture; type: cell-based, Rift Valley Fever Virus; conditions: for EC50: Rift Valley fever virus, Vero, read-out: Estimated EC50
RVFV [1] = test: microbe, parasite or virus in culture; type: cell-based, Rift Valley Fever Virus
human ribonuclease H1 = target: T1, human ribonuclease H1 (Homo sapiens, UniProt O60930); test: biochemical; type: biochemical
T1 construct: made in house; host or cells: E. coli
T1 sequence (O60930 1-286): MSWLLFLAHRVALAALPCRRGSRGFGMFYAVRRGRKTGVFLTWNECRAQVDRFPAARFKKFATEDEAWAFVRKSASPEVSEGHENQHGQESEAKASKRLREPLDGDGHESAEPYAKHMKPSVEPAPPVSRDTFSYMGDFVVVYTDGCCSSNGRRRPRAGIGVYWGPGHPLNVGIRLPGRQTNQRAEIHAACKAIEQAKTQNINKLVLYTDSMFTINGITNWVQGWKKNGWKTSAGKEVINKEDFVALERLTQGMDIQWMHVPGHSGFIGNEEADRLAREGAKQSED

C. neoformans = test: Inhibition of C. neoformans growth, limiting dilution assay; type: cell-based, Cryptococcus neoformans; conditions: Cryptococcus neoformans
[2] = Quantitative cytotoxicity in Vero cells, crystal violet staining of EC50 plates; conditions: African green monkey
Staphylococcus spp. = test: Inhibition of Staphylococcus spp. growth, broth microdilution; type: cell-based, S. saprophyticus or S. aureus; conditions: Staphylococcus; 16-24 hours, Mueller-Hinton broth; — = no measurable MIC80
[3] = Cytotoxicity in HepDES19 cells, MTS assay; conditions: human
in vitro [4] = conditions: African green monkey
RVFV [5] = test: microbe, parasite or virus in culture; type: cell-based, Rift Valley Fever Virus; conditions: Rift Valley fever virus, A549, 24 h
in vitro [6] = conditions: human
[7] = Rift Valley fever virus, Vero, 24 h, read-out: RVFV (EC50, μM)
[8] = 48 hours at 35° C., YNB-02, read-out: C. neoformans (MIC80)
[9] = HepDES19 cells (HepG2-derived hepatoblastoma cell line)
[10] = 48 h, read-out: C. neoformans (MIC80, μM)

Row | Structure (SMILES) | EC50 (RVFV strain MP12) [µM] | EC50 (RVFV [1]; [7]) [µM] | IC50 (human ribonuclease H1) [µM] | MIC80 (C. neoformans; [8]) [µM] | CC50 at 1 day [2] [µM] | CC50 (in vitro [4]) [µM] | further results
1 | CCOC(=O)c1sc(NC(=O)CSc2nnc(Cc3ccccc3)o2)c(C#N)c1C [Compound 6, reference compound] | ≥ 120 | – | – | – | – | – | –
2 | O=c1c(O)c(-c2ccc(O)c(O)c2)oc2cc(O)c(O)c(O)c12 [Compound 7, Quercetagetin, reference compound] | ≥ 120 | – | – | – | – | – | –
3 | NC(=O)c1c(N)sc2c1CCCCC2 [Compound 22, reference compound] | ≥ 120 | – | – | – | – | – | –
4 | CC(C)c1cccc(=O)c(O)c1 [Compound 47, β-thujaplicin, reference compound] | ≥ 120 | – | – | – | – | – | activity against RVFV in the primary screen, in words (RVFV strain MP12): inactive
5 | CC(C)c1ccc(O)c(=O)cc1 [Compound 48, γ-thujaplicin, reference compound] | ≥ 120 | – | – | – | – | – | activity against RVFV in the primary screen, in words (RVFV strain MP12): inactive
6 | Cc1cc(O)c(=O)c(O)cc1C(=O)c1ccccc1 [Compound 111] | – | 19 | 48 | 36 (≈ 9.23 µg/mL) | > 250 | – | –
7 | Cc1cc(O)c(=O)c(O)cc1-c1ccccc1 [Compound 113] | – | 10.3 | 174 | 24 (≈ 5.48 µg/mL) | > 250 | – | –
8 | Cc1cc(O)c(=O)c(O)cc1C(=O)c1ccc(-c2ccccc2)cc1 [Compound 118] | – | 11 | > 500 | 15 (≈ 4.99 µg/mL) | 248 | – | –
9 | Cc1cc(O)c(=O)c(O)cc1C(=O)C1CCCCC1 [Compound 120] | – | 15.6 | 81 | 12 (≈ 3.15 µg/mL) | > 250 | – | –
10 | O=C(O)CC(=O)CC(=O)c1cccs1 [Compound 129, reference compound] | ≥ 120 | – | – | – | – | – | –
11 | O=C1c2ccccc2C(=O)N1O [Compound 138, reference compound] | ≥ 120 | – | – | – | – | – | –
12 | COC(=O)c1c(C)cc(O)c(=O)c(O)c1O [Compound 196] | – | 23.9 | 408 | – | > 250 | – | MIC80 (Staphylococcus spp.): 67 µM (≈ 15.2 µg/mL); CC50 at 3 days [3, 9]: 6 µM
13 | CC1=CC(O)N(O)C(O)=C1/C(C)=N/c1ccccc1N (centres unmarked) [Compound 208] | 14 | > 120 | 194 | – | > 250 | ≥ 120 | MIC80 (C. neoformans; [10]): 30 µM (≈ 8.26 µg/mL); CC50 at 3 days [3]: 14.4 µM
14 | Cc1ccc(O)c(=O)c(O)c1 [Compound 210] | 8 | 14.6 | 85 | 15 (≈ 2.28 µg/mL) | 283 | ≥ 120 | –
15 | Cc1cc(O)c(=O)c(O)cc1-c1ccc(-c2cccc3ccccc23)cc1 [Compound 234] | 19 | – | – | – | – | ≥ 120 | –
16 | O=c1c(O)ccc(-c2ccco2)cc1O [Compound 265] | – | 15.4 | 57 | 11 (≈ 2.25 µg/mL) | > 250 | – | MIC80 (Staphylococcus spp.): 30 µM (≈ 6.13 µg/mL)
17 | CC(=O)c1c(C)cc(O)c(=O)c(O)c1Br [Compound 320] | 2 | 20.1 | 37 | 49 (≈ 13.4 µg/mL) | > 120 | – | EC50 (RVFV [5]): 90.3 µM; CC50 (in vitro [6]): ≥ 120 µM; CC50 at 3 days [3, 9]: 49.5 µM
18 | O=C1C=CC(=O)c2ccccc21 [Compound 327] | 2 | 39.7 | 47 | 9.1 (≈ 1.44 µg/mL) | 42.9 | – | EC50 (RVFV [5]): 19.6 µM; CC50 (in vitro [6]): 27.5 µM; CC50 at 3 days [3, 9]: 18.5 µM

Row | Structure (SMILES) | EC50 (RVFV strain MP12) [µM] | EC50 (RVFV [1]; [7]) [µM] | IC50 (human ribonuclease H1) [µM] | MIC80 (C. neoformans; [8]) [µM] | CC50 at 1 day [2] [µM] | CC50 (in vitro [4]) [µM] | further results
19 | COC(=O)c1c(C)cc(O)c(=O)c(O)c1Br [Compound 335] | 3 | 40.8 | 111 | – | > 120 | – | MIC80 (C. neoformans; [10]): 50 µM (≈ 14.5 µg/mL); EC50 (RVFV [5]): ≥ 120 µM; CC50 (in vitro [6]): 96.2 µM
20 | Cc1cc(O)c(=O)c(O)cc1S(=O)(=O)c1ccccc1 [Compound 336] | 3 | 9 | – | 50 (≈ 14.6 µg/mL) | 65.8 | – | IC50 (human ribonuclease H1; read-out: Human RNaseH1 (IC50)): 85 µM
21 | CC(=O)c1c(C)cc(O)c(=O)c(O)c1Cl [Compound 368] | – | 25.4 | 115 | 24 (≈ 5.49 µg/mL) | > 250 | – | CC50 at 3 days [3, 9]: 31 µM
22 | CSc1cccc(O)c(=O)c1O [Compound 385] | – | 25.2 | 176 | 24 (≈ 4.42 µg/mL) | > 250 | – | CC50 at 3 days [3, 9]: > 100 µM
23 | Cc1cc(O)c(=O)c(O)cc1C(=O)N1CCCCC1 [Compound 390] | 0.1 | 11.9 | 106 | 11 (≈ 2.9 µg/mL) | > 250 | – | activity against RVFV in the primary screen, in words (RVFV strain MP12): active; EC50 (RVFV [5]): 9.37 µM; CC50 (in vitro [6]): ≥ 120 µM; CC50 at 3 days [3, 9]: 29.8 µM
24 | C/C(=N\c1ccccc1F)c1c(C)cc(=O)n(O)c1O [Compound 516] | 19 | – | – | – | – | ≥ 120 | –
25 | COc1ccc(CO/N=C(\C)c2c[nH]c(=O)[nH]c2=O)cc1 [Compound 522] | ≥ 120 | – | – | – | – | 1 | –
26 | Cc1cc(O)c(=O)c(O)cc1C(=O)NCc1ccc(-c2ccccc2)cc1 [Compound 539] | 10 | 18.6 | 105 | 4.5 (≈ 1.63 µg/mL) | > 300 | 71 | MIC80 (Staphylococcus spp.): 38 µM (≈ 13.7 µg/mL); CC50 at 3 days [3, 9]: 3.6 µM
27 | C/C(=N\c1ccccc1Cl)c1c(C)cc(O)n(O)c1=O [Compound 668] | 11 | 14 to 20 | 165 | – | > 120 | ≥ 120 | EC50 (RVFV [1]; read-out: RVFV (EC50)): 19.2 µM; EC50 (RVFV [5]): 35.7 µM; CC50 (in vitro [6]): 82 µM; CC50 at 3 days [3, 9]: 76.8 µM
28 | COc1ccc(Cl)cc1C(=O)Sc1cccccc1=O [Compound 681] | ≥ 120 | – | – | – | – | 2 | –
29 | Cc1ccc(CNC(=O)c2cc(O)c(=O)c(O)cc2C)c(C)c1 [Compound 809] | 17 | – | – | – | – | 64 | –
30 | Cc1cc(O)c(=O)c(O)cc1C(=O)Nc1cccc(OCc2ccccc2)c1 [Compound 836] | 13 | – | – | – | – | ≥ 120 | –
31 | Cc1ccc(Sc2cccc(O)c(=O)c2O)cc1 [Compound 838] | 8 | 12.7 | 100 | 1 (≈ 0.26 µg/mL) | > 300 | 86 | CC50 at 3 days [3, 9]: 18.6 µM
32 | Cc1cc(O)c(=O)c(O)cc1C(=O)N1CCN(C(=O)C2COc3ccccc3O2)CC1 (centres unmarked) [Compound 876] | – | – | – | – | – | ≥ 120 | –
33 | Cc1cc(O)c(=O)c(O)cc1C(=O)N1CCN(c2ccc([N+](=O)[O-])c3nonc23)CC1 [Compound 920] | 19 | – | – | – | – | ≥ 120 | –
34 | Cc1cc(O)c(=O)c(O)cc1C(=O)NCc1ccc(N2CCCC2)cc1 [Compound 1019] | 19 | – | – | – | – | ≥ 120 | –
35 | CCCCNC(=O)c1cc(O)c(=O)c(O)cc1C [Compound 1039] | 6 | 8.9 | – | 12 (≈ 3.02 µg/mL) | > 120 | ≥ 120 | EC50 (RVFV [5]): 15.5 µM; CC50 (in vitro [6]): ≥ 120 µM
